Some test systems named below: BT-549; M19-MEL; DLD-1; XF498; HOP-18; DMS-273; DMS-114; SNB-78.
What all share (assay): NCI tumour cell line growth inhibition, 48 h

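Cells were grown in 96-well plates and exposed to each compound for 48 hours at five concentrations; endpoints were interpolated linearly between bracketing concentrations, or set to the highest concentration if not reached. GI50 marks 50% less growth.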 The source made the active and inactive calls. Rule as the data show it: active = GI50 up to about 1.1 µM and inactive = higher.

For `CN(C)CCNC(=O)c1ccc(NCCCN(C)CCCNc2ccc3c(=O)n(CCN(C)C)c(=O)n4c5ccccc5c(=O)c2c34)c2c(O)c3ccccc3nc12`, the GI50 in the assay on BT-549 was 0.213 µM (active).
In the case of `Cn1c(=O)c2nc(CSCc3ccccc3)[nH]c2n(C)c1=O`, the GI50 with BT-549 was > 100 µM (inactive).
As to `COc1ccc(OC)c(-c2cc(O)c3cc4c(cc3n2)OCO4)c1`, the GI50 was 4.21 µM (inactive) in the assay with M19-MEL; 3.57 µM (inactive) in the assay with DLD-1; 4.42 µM (inactive) in the assay on XF498; > 96.2 µM (inactive) in the assay with HOP-18; 4.06 µM (inactive) with DMS-273; 3.68 µM (inactive) with DMS-114. Moreover, the GI50 in the assay on SNB-78 is 6.98 µM (inactive).
Turning to `CC(C)c1cc(CN(C)C)c(O)c(C(C)(C)C)c1`, the GI50 in the assay on BT-549 is 37.5 µM (inactive).
On to `Cn1c(=O)c2nc(CCCCc3nc4ccccc4[nH]3)[nH]c2n(C)c1=O`, for which the GI50 in the assay on BT-549 was > 100 µM (inactive).
On the same count and under the same terms, the value for `N#CC(C#N)=CNCCN1CCN(C=C(C#N)C#N)CC1` was > 100 µM (inactive); that for `CN(C)CCn1c(=O)c2ccc(NCCCN(C)CCCNc3ccc4c(=O)n(CCN(C)C)c(=O)n5c6ccc(O)cc6c(=O)c3c45)c3c(=O)c4cc(O)ccc4n(c1=O)c23` was 0.0692 µM (active).
Turning to `O=C(Nc1ccccc1)OCCN=c1c2ccccc2ccc2ccccc12`, the GI50 in the assay with BT-549 is 13 µM (inactive).
For the compound `Cc1cnc2ccc(C)c([N+](=O)[O-])c2c1NCCCN(C)C`, the GI50 in the assay on M19-MEL was > 100 µM (inactive); in the assay on XF498, > 100 µM (inactive); in the assay with DMS-273, > 100 µM (inactive); with DMS-114, 86.5 µM (inactive); in the assay on SNB-78 it was > 100 µM (inactive).
Consider `CCOC(=O)c1sc2nc(SC)nc3c2c1N=CN3c1ccccc1Cl`, for which the GI50 with BT-549 was 26.7 µM (inactive).
As to `CCSc1nc2sc(C)c(C)c2c(=O)n1-c1ccc(C(=O)O)cc1`, the GI50 is 60 µM (inactive) in the assay on M19-MEL; 43.2 µM (inactive) in the assay on DLD-1; 75.7 µM (inactive) in the assay on XF498; 10.2 µM (inactive) with HOP-18; 76.9 µM (inactive) in the assay with DMS-114; 94 µM (inactive) in the assay with SNB-78.
As for `Cc1cc(=O)n2nc(SCc3ccccc3)sc2n1`, the GI50 in the assay on BT-549 is > 100 µM (inactive).
With `CCSc1s/c(=N/c2ccc(/N=c3\sc(C)c(SC)s3)cc2)sc1-c1ccc(C)cc1`, the GI50 in the assay on BT-549 is > 100 µM (inactive).
Take `C[C@@H](O)C(=O)N1[C@@H]2CC3CC[C@]2(CS1(=O)=O)C3(C)C`: the GI50 in the assay on BT-549 was > 100 µM (inactive).
The same measure, in the same setting: the value for `O=C1CSC(/C=C/c2ccccc2)N1c1ccc(-n2c(-c3ccccc3)nc3ccccc3c2=O)cc1` (stereo unspecified) was > 100 µM (inactive).
Regarding `Cc1ccc2c(c1C)CC1(Cc3ccc(C)c(C)c3C1=O)C2=O` (stereo unspecified), in the assay on BT-549, the GI50 was > 100 µM (inactive).
With `Cc1cc(C)c(C(=O)O)c(N)c1O`, the GI50 in the assay with M19-MEL, with DLD-1, in the assay with DMS-273 and in the assay with DMS-114 was > 100 µM (inactive) throughout.
On to `O=CN1CCN(C(=O)c2cc(Cl)cc(Cl)c2)C1=S`, for which the GI50 in the assay on BT-549 was 17.3 µM (inactive).
`O=C(CCl)Nc1ccc(C(=O)N/N=C/c2ccc(Cl)cc2)cc1`: the GI50 is 12.8 µM (inactive) with M19-MEL; 2.18 µM (inactive) with DLD-1; 1.19 µM (inactive) in the assay with XF498; 2 µM (inactive) with DMS-273; 1.88 µM (inactive) in the assay with BT-549; 1.45 µM (inactive) in the assay with DMS-114. Also, the GI50 in the assay on SNB-78 was 3.52 µM (inactive).
With `CCOC(=O)c1cc(C#N)[nH]c1-c1ccsc1`, the GI50 in the assay with BT-549 was 34.8 µM (inactive).
On to `CC(=O)N1N=C(c2ccc3ccccc3c2O)CC1c1ccc(N(C)C)cc1` (stereo unspecified), for which, in the assay on BT-549, the GI50 was > 100 µM (inactive).
Same read-out and setting: the value for `Cc1cn(CCCCOC(=O)NC(CCCNC(=N)N)C(=O)O)c(=O)[nH]c1=O` (stereo unspecified) was > 100 µM (inactive); that for `CC(C)OC(=O)c1ccc(CCc2cc(O)c(Br)cc2O)cc1` was 16.4 µM (inactive); that for `O=C(O)CSC(NC(=O)C(C(F)(F)F)C(F)(F)F)(C(F)(F)F)C(F)(F)F` was > 100 µM (inactive).
Turning to `O=C1C(C(O)(C(F)(F)Cl)C(F)(F)Cl)CCC1C(O)(C(F)(F)Cl)C(F)(F)Cl` (stereo unspecified), the GI50 in the assay with BT-549 is 4.35 µM (inactive).
Take `CCOC(=O)/C(C#N)=C/c1[nH]c(C)c(C)c1C`: the GI50 in the assay with M19-MEL, in the assay on DLD-1, in the assay on XF498, in the assay on HOP-18, in the assay on DMS-273 and in the assay with DMS-114 was > 100 µM (inactive) throughout. The GI50 with SNB-78 was > 100 µM (inactive).
For the compound `OC1CC2CCCN(CCc3c1[nH]c1ccccc31)C2` (stereo unspecified), the GI50 with BT-549 is 38.3 µM (inactive).
The same measure, in the same setting: as for `O=C(Nc1ccc2ncccc2c1)c1cc2c(cc1Cl)Sc1nccn1S2(=O)=O`, the figure is 15.6 µM (inactive).
Take `COc1ccc(NC(=O)CC(=O)NN2C(=O)/C(=C/c3ccc(N(CCC#N)CCC#N)cc3C)N=C2/C=C\c2ccccc2)cc1`: the GI50 in the assay with M19-MEL is > 100 µM (inactive); in the assay with DLD-1 it was > 100 µM (inactive); in the assay on HOP-18 it was 18.5 µM (inactive); with SNB-78, > 100 µM (inactive).
As for `CC(C)C12Cc3c(ccc4ccccc34)OC1(C)Oc1ccc3ccccc3c1C2` (stereo unspecified), the GI50 in the assay with DLD-1 was > 100 µM (inactive); with XF498, > 100 µM (inactive); with DMS-273 it was > 100 µM (inactive); in the assay with DMS-114, 25.6 µM (inactive); with SNB-78, > 100 µM (inactive).
With `O=C(O)c1nc(-c2ccccn2)c(-c2ccccn2)nc1C(=O)O`, the GI50 in the assay on BT-549 is 4.01 µM (inactive).
As to `Brc1cccc(/C=C/CN2CCN(CCOC(c3ccccc3)c3ccccc3)CC2)c1`, the GI50 in the assay on BT-549 was 16.5 µM (inactive).
The same measure, in the same setting: as for `COC(=O)C1=C(OC(=O)/C(=C/c2ccc(Cl)cc2Cl)c2ccc(Cl)cc2Cl)C(C(=O)OC)[C@@]2(O)[C@@H](C(=O)OC)[C@H](C)C[C@@H]1[C@@H]2C(=O)OC` (stereo partly specified), the figure is > 100 µM (inactive).
As to `O=S(=O)(C1=CC(S(=O)(=O)c2ccccc2)COC1)c1ccccc1` (stereo unspecified), the GI50 with M19-MEL, in the assay on DLD-1, in the assay on XF498, in the assay on DMS-273 and in the assay on DMS-114 was > 100 µM (inactive) each time.
On to `CN(C)C1(N(C)C)Oc2c(c(=O)n(C)c(=O)n2C)C(c2ccccc2Br)C1(F)F` (stereo unspecified), for which, in the assay on BT-549, the GI50 is > 100 µM (inactive).
As to `O=C1c2cccc3cc([N+](=O)[O-])cc(c23)C(=O)N1O`, the GI50 in the assay with BT-549 was 28.6 µM (inactive).
Consider `COc1ccc2c3c(c(C(=O)O)oc13)C(CCC(=O)O)CC2` (stereo unspecified), for which the GI50 in the assay on DLD-1, with XF498, in the assay with HOP-18, with DMS-273, in the assay on DMS-114 and in the assay on SNB-78 was > 100 µM (inactive) each time.
`CS(=O)(=O)OCCCSCCSCCCOS(C)(=O)=O`: the GI50 in the assay on BT-549 was > 100 µM (inactive).
`CC(=O)/C=c1\[nH]/c(=C\C=C\c2ccccc2)c(=O)n1/C=C1\C(=O)Oc2ccccc2C1=O`: in the assay with BT-549, the GI50 is > 100 µM (inactive).
In the case of `CCCCCCCCCCCCCC(=O)OC1CC(=O)OC1CO` (stereo unspecified), the GI50 in the assay on M19-MEL was > 100 µM (inactive); in the assay on DLD-1 it was 34.4 µM (inactive); in the assay with XF498 it was 65.3 µM (inactive); in the assay with HOP-18 it was 21.6 µM (inactive); in the assay with DMS-273, > 100 µM (inactive); in the assay with DMS-114 it was 35.7 µM (inactive). In addition, the GI50 in the assay on SNB-78 is 37.8 µM (inactive).
For `CC(=O)O[C@H]1C(=O)[C@@]2(C)[C@H]([C@H](OC(=O)c3ccccc3)[C@]3(O)C[C@H](OC(=O)[C@H](O)[C@@H](NC(=O)c4ccccc4)c4cccc(N(C)C)c4)C(C)=C1C3(C)C)[C@]1(OC(C)=O)CO[C@@H]1C[C@@H]2O`, the GI50 with BT-549 is 0.165 µM (active).
Same read-out and setting: the value for `CC1(C)OCC(C2OC(=O)C(OCc3ccccc3)=C2OCc2ccccc2)O1` (stereo unspecified) was 35 µM (inactive).
Regarding `Cc1cccc(C)c1N1C(=O)C(=O)C(c2nc3ccccc3s2)/C(=N/c2cccc3c(=O)[nH][nH]c(=O)c23)C1=O` (stereo unspecified), the GI50 in the assay with M19-MEL, in the assay on DLD-1, in the assay on HOP-18, with DMS-273 and in the assay on SNB-78 was > 100 µM (inactive) each time.
`COc1ccc(OC)c(NC(=O)CCC/C(CC(=O)c2ccc(O)c(OC)c2)=N\Nc2nnc(C)n2N)c1`: the GI50 in the assay on M19-MEL is > 100 µM (inactive); with DLD-1 it was > 100 µM (inactive); in the assay with XF498, > 100 µM (inactive); with HOP-18 it was > 100 µM (inactive); in the assay with DMS-273, > 100 µM (inactive); in the assay with DMS-114 it was 95.7 µM (inactive).
In the case of `CC#CC#C/C=C1/C=CC2(CCCCO2)O1` (stereo unspecified), in the assay on BT-549, the GI50 was > 100 µM (inactive).
Take `COc1cc2c(cc1OCCCC(=O)Nc1cc(C(=O)Nc3cc(C(=O)Nc4cc(C(=O)NCCCN(C)C)n(C)n4)n(C)n3)n(C)n1)N=CC1CCCN1C2=O` (stereo unspecified): in the assay with BT-549, the GI50 is 12.4 µM (inactive).
For `COC(=O)c1c(C)cccc1C1CN=NC12Cc1cc(C)c(C)cc1C2=O` (stereo unspecified), the GI50 in the assay on BT-549 was 32.4 µM (inactive).
Take `C=CC1=C(C)c2cc3[nH]c(c4c5nc(cc6[nH]c(cc1n2)c(C)c6CC)C(C)=C5C(=O)[C@@H]4C(=O)OC)[C@@H](CCC(=O)O)[C@@H]3C`: the GI50 in the assay with BT-549 is 2.31 µM (inactive).
On to `Fc1ccc(C2SCc3nc4ccccc4n32)cc1` (stereo unspecified), for which the GI50 in the assay with M19-MEL was 41 µM (inactive); with DLD-1, 39.7 µM (inactive); in the assay on XF498, 27.8 µM (inactive); in the assay with HOP-18 it was < 0.01 µM (active); in the assay on DMS-114, 39.5 µM (inactive); with SNB-78, 13.8 µM (inactive).
Regarding `Cn1/c(=N\N=C(\CNCCO)[C@@H](O)[C@@H]2OC(c3ccccc3)OC[C@H]2O)sc2ccccc21` (stereo partly specified), the GI50 in the assay on BT-549 was 21.1 µM (inactive).
For the compound `Cc1cn(C(=O)NC23CC4CC(CC(C4)C2)C3)c(=O)[nH]c1=O`, the GI50 in the assay on BT-549 was 21.8 µM (inactive).
Same read-out and setting: as for `Nc1cc(F)ccc1CC(=O)O`, the figure is 79.3 µM (inactive); as for `Cc1cc(C)nc(NC(P(=O)(O)O)P(=O)(O)O)n1`, > 100 µM (inactive); as for `CCC[C@H](C)[C@H]1NC(=O)[C@@H](NC(=O)[C@@H](CC(C)C)N(C)C(=O)C2CCCN2C(=O)[C@H](C)O)[C@@H](C)OC(=O)[C@H](CC(C)C)N(C)C(=O)[C@@H]2CCCN2C(=O)[C@H](CC(C)C)NC(=O)[C@@H](C)C(=O)[C@H](C(C)C)OC(=O)C[C@@H]1O` (stereo partly specified), < 0.0025 µM (active).
On to `COc1ccc(OC)c(-c2cc(=O)c3c(OC)c(OC)c(OC)c(OC)c3o2)c1`, for which the GI50 in the assay with BT-549 is 33.2 µM (inactive).

The record behind these values is ChEMBL document CHEMBL1201862, “PubChem BioAssay data set” (2004).
